US12320799B2, “Methods of measuring signaling pathway activity for selection of therapeutic agents” (Celcuity Inc., priority 2017, dated 2025)

Assays:
Type in all cases: cell-based, human
FLT3 signaling pathway = assay: CELx multiple pathway test, impedance biosensor cell adhesion, FL/Gilteritnib pair; settings: activator FL
Source text: Biosensor and transducer: A 96-well impendence E-Plate (ACEA, San Diego, CA) was placed onto an xCELLigence RTCA MP Station impendence biosensor (ACEA, San Diego, CA). The biosensor measured simultaneously the impedance of every well. The change in impedance for a particular well is proportional to the number of cells and type of attachment the cells have with the impedance microplate. Changes in impedance indicate a response to perturbation of these small cell populations. Coatings: The 96-E-Plate were wells were coated with fibronectin and or collagen. Collagen is purchased from Advanced BioMatrix (Carlsbad, CA) and fibronectin from Sigma-Aldrich (St. Louis, MO). Tissue and cell samples: A total of 18 samples of human tumor cells from breast, lung, colon, ovarian, kidney, bladder cancer were studied. For each of these six different cancer types, tumor cell samples from three different patients were tested. Any biomarkers that are used to guide selection of targeted therapy are listed in Table 18 for each patient if they were present. Signaling Pathways activator agent and targeted therapeutic pairs: Eleven different signaling pathways were studied in each human tumor cell sample using […] signaling pathway activator agent and targeted therapeutic pairs. Each of the signaling pathway activator agent and targeted therapeutic pairs affect the same signaling pathway. Each of the signaling pathway activator agents is a well-characterized and specific agonist of its associated signaling pathway and each of the targeted therapeutic agents is a well-characterized and specific antagonist of the same associated signaling pathway. The signaling pathway activator agents and targeted therapeutics used to characterize the activity level of the associated signaling pathway are summarized in Table 16 below:
Other Reagents: Standard media antibiotics (e.g. penicillin, streptomycin) and other buffers were purchased and used as delivered from ATCC (Manassas, VA, USA) or Life Technologies (Grand Island, NY). Procedure: For each test of a patient cell sample with a pair of signaling pathway activator and targeted therapeutic agents, six wells were seeded with approximately 15,000 cells in 120 uL culture media. Twenty microliters of the targeted therapeutic agent were added to two wells of each patient's cells and 20 microliters of standard media were added to the other four wells for each patient 18 hours in advance of addition of the signaling pathway activator agent. Signaling pathway stimulation was initiated with the addition of 20 ul of the signaling pathway activator agent in the two wells that received a targeted therapeutic agent and in two additional wells for each patient's set of cells without the targeted therapeutic. The impedance recording of attachment and adhesion change was performed at 37° C., 5% C02. Data was recorded on a continuous basis throughout the test, where the data presented is from the initial baseline level of cell attachment compared to the subsequent effects following the targeted therapeutic agent and the signaling pathway activator agent additions on the 18 different patient samples.
For each of the 18 patient samples, up to 11 different signaling pathways were tested. The output value represents the difference between the amount of cell adhesion change resulting from addition of the signaling pathway activator agent and the amount of cell adhesion change resulting from addition of the targeted therapeutic agent.

[1] = tested on: HER1, HER3 and c-Met pathways; assay: CELx test of multiple pathways simultaneously (EGF, NRG1, HGF in combination), impedance biosensor
Source text: Biosensor and transducer: A 96-well impendence E-Plate (ACEA, San Diego, CA) was placed onto an xCELLigence RTCA MP Station impendence biosensor (ACEA, San Diego, CA). The biosensor measured simultaneously the impedance of every well. The change in impedance for a particular well is proportional to the number of cells and type of attachment the cells have with the impedance microplate. Changes in impedance indicate a response to perturbation of these small cell populations. Coatings: The 96-E-Plate were wells were coated with fibronectin and or collagen. Collagen is purchased from Advanced BioMatrix (Carlsbad, CA) and fibronectin from Sigma-Aldrich (St. Louis, MO). Tissue and cell samples: Six samples of human tumor cells from breast cancer were studied (C1815, C1596, C1838, C135, C42, C264). Any biomarkers that are used to guide selection of targeted therapy are listed in Table 22 for each patient if they were present. Signaling Pathways activator agent and targeted therapeutic pairs: In each human tumor cell sample, gross signaling activity of the HER1, HER3 and c-Met pathways initiated by three activator agents (EGF, NRG1, HGF) in combination was quantified. […] Each of the signaling pathway activator agents is a well-characterized and specific agonist of its associated signaling pathway. […] The fifth targeted therapeutic tested, taselisib, is an inhibitor that binds to PI3k, which downstream of the HER family and c-Met receptors. Other Reagents: Standard media, antibiotics (e.g. penicillin, streptomycin), and other buffers were purchased and used as delivered from ATCC (Manassas, VA, USA) or Life Technologies (Grand Island, NY). Procedure:
For each test of a patient cell sample with a signaling pathway activator(s) and targeted therapeutic agent(s), six or eight wells were seeded with approximately 15,000 cells in 120 uL culture media; six wells were seeded when only a single drug was evaluated and eight wells were seeded when two drugs were evaluated. When only a single drug was evaluated, 20 uL of the targeted therapeutic agent was added to two wells of each patient's cells and the final concentration of the therapeutic agent in the two wells with the single therapeutic agent was 500 nanomolar. When two therapeutic agents were evaluated, two wells of patient cells received 20 uL of the combined therapeutic agents at a concentration of 500 nanomolar each and an additional two wells of patient cells received 20 uL of the combined therapeutic agents at a concentration of 50 nanomolar each. Twenty microliters of standard media were added to the other four wells for each patient 18 hours in advance of addition of the signaling pathway activator agent(s). Signaling pathway stimulation was initiated with the addition of 20 ul of the signaling pathway activator agent(s) in the two or four wells that received a targeted therapeutic agent(s) and two additional wells for each patient's set of cells. The impedance recording of attachment and adhesion change was performed at 37° C., 5% CO2. Data was recorded on a continuous basis throughout the test, where the data presented if from the initial baseline level of cell attachment compared to the subsequent effects following the targeted therapeutic agent(s) and the signaling pathway activator agent(s) additions on the nine different patient samples.
For each of the six patient samples, three different signaling pathways (HER1, HER3, c-Met) were activated simultaneously. The output value represents the difference between the amount of cell adhesion change resulting from addition of the signaling pathway activator agent(s) and the amount of cell adhesion change resulting from addition of the targeted therapeutic agent(s).

c-Met signaling = assay: CELx ex vivo test of C21 sample agonized only by HGF; settings: C21 cell sample agonized only by HGF
Description: (§1) A HER2+ tumor cell sample, C21, was tested using essentially the same methods described in Examples 1 and 3 above to evaluate the status of the c-Met, EGFR, HER2 and HER3 pathways. […] Thus, this cell sample was suitable to assess whether cells found to be responsive to c-Met and EGFR inhibitors ex vivo in the CELx test would respond to these same inhibitors when another portion of the same cell sample was implanted in a xenograft mouse model.
(§2) This finding is not related to the receptor or gene amplification status of either receptor, nor observable when signaling activity is measured in isolation. This highlights the advantages of evaluating multiple signaling pathways simultaneously in live cells.

[2] = tested on: HER family signaling pathways and the c-Met signaling pathway; assay: CELx ex vivo test of C21 sample simultaneously agonized with NRG1, EGF and HGF; settings: C21 cell sample simultaneously agonized with NRG1, EGF and HGF
Description: as §1, §2

CCc1nc(C(N)=O)c(Nc2ccc(N3CCC(N4CCN(C)CC4)CC3)c(OC)c2)nc1NC1CCOCC1 [Gilteritnib]
output value (FLT3 signaling pathway; C2 breast tumor cells): 7 | output value (FLT3 signaling pathway; C21 breast tumor cells): 9 | output value (FLT3 signaling pathway; C34 breast tumor cells): 10 | output value (FLT3 signaling pathway; C54 ovarian tumor cells): 10 | output value (FLT3 signaling pathway; C77 ovarian tumor cells): 6

Cc1nc(-c2cn3c(n2)-c2ccc(-c4cnn(C(C)(C)C(N)=O)c4)cc2OCC3)n(C(C)C)n1 [taselisib]
Output value (cell adhesion change, activator agents minus targeted therapeutic agent(s)) ([1]; breast cancer patient sample C42, agent(s) 500 nM each): 246 | Output value (cell adhesion change, activator agents minus targeted therapeutic agent(s)) ([1]; breast cancer patient sample C135, agent(s) 500 nM each): 583 | Output value (cell adhesion change, activator agents minus targeted therapeutic agent(s)) ([1]; breast cancer patient sample C264, agent(s) 500 nM each): 276 | Output value (cell adhesion change, activator agents minus targeted therapeutic agent(s)) ([1]; breast cancer patient sample C1596, agent(s) 500 nM each): 242 | Output value (cell adhesion change, activator agents minus targeted therapeutic agent(s)) ([1]; breast cancer patient sample C1815, agent(s) 500 nM each): 385 | Output value (cell adhesion change, activator agents minus targeted therapeutic agent(s)) ([1]; breast cancer patient sample C1838, agent(s) 500 nM each): 271

CN1CCC(COc2cnc(-c3cccc(Cn4nc(-c5cccc(C#N)c5)ccc4=O)c3)nc2)CC1 [tepotinib]
percentage of c-Met signaling activity inhibited (c-Met signaling): ~100% | total signaling inhibited [2]: less than 10%
